From US20230066648A1, “METHOD FOR INDUCING TRANSDIFFERENTIATION OF SOMATIC CELLS INTO MAMMARY EPITHELIAL CELLS IN VITRO USING SMALL MOLECULE COMPOUND” (GUANGXI UNIVERSITY, priority 2019, published 2023)
“Also recorded” adds a separate entry of the source.

System: ear margin fibroblasts (GEFs) of goat
Experiment: induction of transdifferentiation of fibroblasts into mammary epithelial cells with induction medium, cell morphology
Assay type: cell-based
Conditions: for transdifferentiation of fibroblasts into mammary epithelial cells with the inhibitor alone: 8 d, 10 μM SB431542, 5 μM SB525334, 1 μM LDN193189 induction medium alone
Procedure: 1. The ear margin fibroblasts (GEFs) of goat were isolated and cultured by a tissue adherence method to provide cell materials for subsequent induction.
2. The fibroblasts were inoculated into a 60 mm cell culture dish at a density of 5×10^5, and after culturing for 8 h to 24 h in the high-glucose DMEM+10% FBS (volume percentage), the induction medium BFRTV was replaced, and then cultured at 37° C. for 8 d in a 5% CO2 incubator, where the medium was changed every two days.
3. When cultured to the 8th day, CiMECs can be subcultured and inoculated onto a plate pretreated with Matrix (a volume ratio of Matrix to gelatin was 1:50), and then cultured in a mammary epithelial cell medium, when the cell confluence reached about 90%, the cells were subcultured or frozen for subsequent detection.
Taking the ear margin fibroblasts of Guanzhong dairy goat as an experimental object, the concentration of five small molecule compounds currently used was adjusted, and the concentration of BFRTV was adjusted as a whole under the condition that the basal solution remained unchanged.

| Compound | transdifferentiation of fibroblasts into mammary epithelial cells with the inhibitor alone | induction of mammary epithelial cells with Repsox alone (R induction medium) (R induction medium, no other small molecule) |
| --- | --- | --- |
| Cc1cccc(-c2[nH]c(C(C)(C)C)nc2-c2ccc3nccnc3c2)n1 [SB525334] | the fibroblasts can be induced into mammary epithelial cells; also recorded: could still induce the transdifferentiation of fibroblasts into mammary epithelial cells | – |
| Cc1cccc(-c2[nH]ncc2-c2ccc3ncccc3n2)n1 [Repsox] | – | mammary epithelial cells (CiMECs) similar to those by BFRTV induction medium were obtained |
| NC(=O)c1ccc(-c2nc(-c3ccc4c(c3)OCO4)c(-c3ccccn3)[nH]2)cc1 [SB431542] | the fibroblasts can be induced into mammary epithelial cells; also recorded: could still induce the transdifferentiation of fibroblasts into mammary epithelial cells | – |
| c1ccc2c(-c3cnn4cc(-c5ccc(N6CCNCC6)cc5)cnc34)ccnc2c1 [LDN193189] | the fibroblasts can be induced into mammary epithelial cells; also recorded: could still induce the transdifferentiation of fibroblasts into mammary epithelial cells | – |
